Publication PMC5866846 (Archives of Toxicology, 2017)

Legend:
[1] = tested on: upcyte hepatocytes 653-03 2D6; assay: Tam metabolism in upcyte hepatocytes 653-03 2D6, metabolites in culture medium; assay type: in vitro ADME, human; settings: cells incubated with 1 µM Tam up to 144 h
Experimental: The medium was replaced every 2–3 days. […].
The culture medium was collected after 24, 48, 72, 96 and 144 h followed by metabolite measurements using HPLC-ESI-MS/MS.
Protein was precipitated by the addition of ACN containing 1% of acetic acid and the corresponding deuterated internal standards to the same volume of the sample followed by centrifugation at 20.000 g for 15 min at RT. […] Analytes were separated on a Zorbax Eclipse Plus C18 column (1.8 µm, 100 × 2.1 mm, Agilent technologies) and detected on a 6460 triple quadrupole mass spectrometer (Agilent technologies) in positive ESI MRM mode. Glucuronides of estrogen-like metabolites were detected separately via MS/MS-measurements in negative ESI MRM mode.
[…]. […] […].

CYP3A4 = CYP3A4 activity in upcyte hepatocytes after treatment (probe substrate cocktail); settings: 5 µM, 72 h, parental and derived cell line
Experimental: (§1) Cells were cultivated in hepatocyte culture medium at 37 °C and 5 °% CO2 in a humidified incubator. Before starting experiments, cells were cultivated in hepatocyte culture medium containing 0.5% (v/v) DMSO (Preculture medium) for 5 days (density of 0.8 × 10^4 cells/cm^2) and were subcultivated in high-performance medium containing 0.1% (v/v) DMSO (Metabolism conditioning medium) for 3–5 days (density of 1.6 × 10^5 cells/cm^2, confluence). The medium was replaced every 2–3 days.
(§2) In HLM and supersome™ incubations the formation rate is given as nmol µg^−1 min^−1 and fmol pmol^−1 min^−1, respectively, and was calculated as the mean ± SD. […] The intrinsic Clearance (Clint) was given as Vmax/Km ratio. […] Activity of CYP enzymes in induction assays is given as the fold-change (mean ± SD) compared to the corresponding DMSO-treated control. […] Gene expression patterns of treated cells are given as fold-change compared to the corresponding DMSO-treated control samples, as described above. […] In induction and inhibition experiments corresponding EC50 and IC50 values were calculated by nonlinear regression. In all experiments a level of probability (p) ≤ 0.05 for statistical testing was considered significant.
(§3) As control 0.05 % DMSO was used. The basal CYP activity and induction of CYP activity compared to the DMSO control were measured via HPLC-ESI-MS/MS.

CYP2C8 [2] = target: T1, CYP2C8 (Homo sapiens, UniProt P10632); assay: Inhibition of CYP2C8 activity in HLM; assay type: in vitro ADME; settings: 200 nM to 10 µM, 10 min pre-incubation
T1 sequence (P10632 1-490): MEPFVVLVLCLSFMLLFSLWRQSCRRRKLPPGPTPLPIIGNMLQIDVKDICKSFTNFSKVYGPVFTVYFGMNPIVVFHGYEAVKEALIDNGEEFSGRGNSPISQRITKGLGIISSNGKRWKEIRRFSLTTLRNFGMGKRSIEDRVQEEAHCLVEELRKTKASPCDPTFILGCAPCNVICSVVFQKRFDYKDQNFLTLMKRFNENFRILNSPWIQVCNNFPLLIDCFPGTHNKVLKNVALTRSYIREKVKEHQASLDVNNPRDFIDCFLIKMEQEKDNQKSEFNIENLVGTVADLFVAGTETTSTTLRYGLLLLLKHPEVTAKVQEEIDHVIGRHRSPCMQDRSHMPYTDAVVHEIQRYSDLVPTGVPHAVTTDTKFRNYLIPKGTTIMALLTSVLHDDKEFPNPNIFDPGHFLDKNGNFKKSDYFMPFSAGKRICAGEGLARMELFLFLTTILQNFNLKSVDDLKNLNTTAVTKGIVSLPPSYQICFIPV

CYP2C9 = CYP2C9 (Homo sapiens, UniProt P11712); assay: Inhibition of CYP2C9 activity in HLM; assay type: in vitro ADME; settings: human, human liver microsomes, 200 nM to 10 µM, 10 min pre-incubation
Chain of CYP2C9 (P11712 whole entry): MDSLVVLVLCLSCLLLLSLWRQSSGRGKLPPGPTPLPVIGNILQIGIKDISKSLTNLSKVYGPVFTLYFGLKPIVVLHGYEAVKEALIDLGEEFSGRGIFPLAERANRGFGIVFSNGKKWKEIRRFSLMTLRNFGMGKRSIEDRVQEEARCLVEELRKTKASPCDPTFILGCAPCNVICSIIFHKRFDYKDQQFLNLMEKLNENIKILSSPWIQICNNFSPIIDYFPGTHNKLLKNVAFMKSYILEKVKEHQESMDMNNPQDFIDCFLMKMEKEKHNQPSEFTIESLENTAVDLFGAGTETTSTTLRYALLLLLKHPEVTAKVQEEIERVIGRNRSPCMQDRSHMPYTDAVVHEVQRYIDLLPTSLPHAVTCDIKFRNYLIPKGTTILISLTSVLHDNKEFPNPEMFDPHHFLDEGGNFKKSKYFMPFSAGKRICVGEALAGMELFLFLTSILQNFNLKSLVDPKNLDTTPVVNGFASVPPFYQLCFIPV

CYP2C19 = CYP2C19 (Homo sapiens, UniProt P33261); assay: Inhibition of CYP2C19 activity in HLM; assay type: in vitro ADME; settings: human, human liver microsomes, 200 nM to 10 µM, 10 min pre-incubation
Chain of CYP2C19 (P33261 whole entry): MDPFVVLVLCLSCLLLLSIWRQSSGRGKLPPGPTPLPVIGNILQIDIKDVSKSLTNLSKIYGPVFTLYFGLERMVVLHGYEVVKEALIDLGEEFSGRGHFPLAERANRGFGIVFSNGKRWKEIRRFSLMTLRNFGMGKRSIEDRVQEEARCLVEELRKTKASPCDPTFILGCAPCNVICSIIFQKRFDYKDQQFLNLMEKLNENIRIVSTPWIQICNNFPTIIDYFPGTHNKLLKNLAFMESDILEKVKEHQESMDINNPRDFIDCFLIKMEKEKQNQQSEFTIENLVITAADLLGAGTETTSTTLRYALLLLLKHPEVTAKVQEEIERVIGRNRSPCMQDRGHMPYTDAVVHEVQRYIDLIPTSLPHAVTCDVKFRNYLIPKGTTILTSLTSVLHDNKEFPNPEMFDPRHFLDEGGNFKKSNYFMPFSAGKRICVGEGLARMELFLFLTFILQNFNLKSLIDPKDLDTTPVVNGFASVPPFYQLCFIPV

CYP3A4 gene expression = CYP3A4 gene expression in upcyte hepatocytes (Fluidigm RT-PCR); settings: 5 µM, 72 h, both cell strains
From the text: Total RNA was isolated from cells using the Direct-zol™ RNA MiniPrep kit (Zymo Research Corp., Irvine, California). cDNA was synthesized using TaqMan Reverse Transcription Reagents (Life technologies, Applera GmbH, Darmstadt, Germany) and the expression of 25 genes representative of phase I and phase II drug metabolism and transport was quantified by Fluidigm’s BioMark HD high-throughput quantitative chip platform (Fluidigm Corporation, San Francisco, USA). For relative gene expression analysis, the delta-delta-Ct (ΔΔCt) method was used: the Ct values of the target mRNA were first normalized to those of the endogenous control glyceraldehyde-3-phosphate dehydrogenase (GAPDH) followed by dividing values of experimental samples by their corresponding DMSO-treated controls to calculate the x-fold changes of mRNA expression.
as §2, §3

CYP2A6 gene expression = CYP2A6 gene expression in upcyte hepatocytes (Fluidigm RT-PCR); assay type: cell-based, human; settings: 5 µM, 72 h, both cell strains
From the text: (§4) Differences between induced and control samples were compared using Welch’s t-test (GraphPad Prism, version 5.04), when the fold-change was considered biologically relevant (1.5-fold increase or decrease in fold-changes) and corrected for multiple testing according to Bonferroni. […] An unpaired t-test assuming unequal variances was used for testing of differences in the expression patterns, when the fold-change was considered biologically relevant (1.5-fold increase or decrease in fold-changes) and corrected using Bonferroni adjustments.

SLC10A1 gene expression = SLC10A1 gene expression in upcyte hepatocytes (Fluidigm RT-PCR); assay type: cell-based, human; settings: 5 µM, 72 h, both cell strains
From the text: as §4

CYP2C8 [3] = target: T1, CYP2C8; assay: CYP2C8 activity in upcyte hepatocytes after treatment (probe substrate cocktail); assay type: cell-based; set-up: host or cells: upcyte hepatocytes 653-03 and 653-03 #138 (653-03 2D6); settings: human, upcyte hepatocytes 653-03 and 653-03 2D6, probe amodiaquine 5 µM, 5 µM, both cell lines
Experimental: as §1, §2, §3

With `CC/C(=C(\c1ccc(O)cc1)c1ccc(OCCN(C)C)cc1)c1ccccc1` [4OH-Tam, (Z)-4-Hydroxytamoxifen] the “concentration in the supernatant of 653-03 2D6 cells relative to parental cells” value [1] was “up to 20 times”, the “induction of CYP3A4 activity compared to DMSO control” value (CYP3A4) was “up to 2.1 fold” and the IC50 (CYP2C8 [2]) was greater than 10 µM. For the same compound, the “IC50 of CYP2C8 activity” value (CYP2C8 [2]) was “only minor inhibition”, the IC50 at 15 min (CYP2C9) was greater than 10 µM and the IC50 at 15 min (CYP2C19) was greater than 10 µM. For the same compound, the “CYP3A4 gene expression, induction vs DMSO control” value (CYP3A4 gene expression) was “up to 5.6 fold”, the “CYP2A6 gene expression, downregulation” value (CYP2A6 gene expression) was “up to twofold” and the “SLC10A1 gene expression, downregulation (fold lower)” value (SLC10A1 gene expression) was “up to twofold”. It also gave an inhibition at 72 h, 5 µM (CYP2C8 [3]) of no more than 90%.
